Legend:
[1] = system: basal cell carcinoma (BCC) lesions on the face; assay: Randomized, double-blind, vehicle-controlled study of Patidegib Topical Gel, 2% in Gorlin syndrome participants, ITT, all types of subjects (Example 3); format: in vivo, human; details: PTCH1 mutation not required, gel 2% twice daily to face
Source text: (§1) A randomized, double-blind, stratified, vehicle-controlled study was done, measuring the efficacy and safety of Patidegib Topical Gel, 2%, applied topically twice daily to the face of adult participants with Gorlin syndrome. The Participants were required to apply the investigational product for 12 months. The primary endpoint is a comparison between the two treatment arms of the number of new BCCs that develop over the 12 month period.
Participants will be randomized to receive Patidegib Topical Gel, 2%. The Patidegib Topical Gel, 2% will be dispensed to participants at each study visit and applied topically twice daily to the face.
Participants will be randomized to receive Vehicle. The Patidegib Topical Gel, Vehicle will be dispensed to participants at each study visit and applied topically twice daily to the face.
• 1. The participant must be age at least 18 years of age at the Screening Visit. • 2. The participant must provide written informed consent prior to any study procedures. • 3. The participant must meet diagnostic criteria for the basal cell nevus (Gorlin) syndrome including major criterion #3a plus 1 additional major criterion or plus 2 additional minor criteria listed below.
• a. >2 histologically confirmed BCCs or 1 for participant under age 20. • b. Odontogenic keratocysts of the jaw confirmed histologically. • c. ≥3 palmar and/or plantar pits seen at the Screening Visit. • d. Bilamellar calcification of the falx cerebri present at less than 20 years of age. • e. Fused, bifid, or markedly splayed ribs. • f. First degree relative with Gorlin syndrome. • g. Patched protein 1 (PTCH1) mutation predicted to be of functional significance in normal tissue.
• h. Macrocephaly. • i. Congenital malformations including frontal bossing, cleft lip or palate, “coarse face”, moderate to severe hypertelorism. • j. Skeletal abnormalities detectable clinically: Sprengel deformity, marked pectus deformity, or marked finger syndactyly. • k. Skeletal abnormalities detectable radiographically: bridging of the sella turcica; vertebral abnormalities such as hemivertebrae, fusion or elongation of the vertebral bodies; modeling defects of the hands and feet; flame shaped lucencies of the hands or feet. • l. Ovarian fibroma. • m. Medulloblastoma (Modification of criteria of V Kimonis et al Am J Med Genet 69: 299-308, 1997). • 4. The participant must have 10 (with at least 3 on the face) clinically typical BCCs present within 24 months prior to Randomization (Baseline/Day 1). Additionally, the subject must have at least 2 BCCs with longest diameter <5 mm present on the face prior to Randomization (Baseline/Day 1). • 5. […] The participant is willing for all facial BCCs to be evaluated and treatment recommendations made only by the Investigator. • 10. […]

[2] = system: basal cell carcinoma (BCC) lesions on the face; assay: Post hoc analysis of the Example 3 trial: Gorlin patients without PTCH1 mutation (Example 4); format: in vivo, human; details: for Number of qualifying nSEBs, observed, Mean / Number of new BCCs excluding no longer suspicious BCCs, observed, Mean: Gorlin syndrome without PTCH1 mutation, gel 2% twice daily to face; for Number of qualifying nSEBs, observed, Mean: baseline total BCC lesions at least 10; for Number of new BCCs excluding no longer suspicious BCCs, observed, Mean: baseline total facial BCC lesions at least 10
Experimental: as §1
A post hoc analysis was performed on the results of the clinical trial of Example 3 to analyze the impact of Patidegib on patients without PTCH1 mutation.

CC1=C2C[C@H]3[C@@H](CC[C@@H]4C[C@H](NS(C)(=O)=O)CC[C@@]43C)[C@@H]2CC[C@@]2(C1)O[C@@H]1C[C@H](C)CN[C@H]1[C@H]2C [Patidegib]
Proportion of SEBs clinically resolved, observed, Mean ([1]; month 3): 7.72 | Proportion of SEBs clinically resolved, observed, Mean ([1]; month 6): 6.91 | Proportion of SEBs clinically resolved, observed, Mean ([1]; month 9): 9.13 | Proportion of SEBs clinically resolved, observed, Mean ([1]; month 12): 15.03 | Overall efficacy (in words) ([2]; Gorlin syndrome subjects who lacked the PTCH1 mutation (Examples 3 and 4)): produced no effect | Number of qualifying nSEBs, observed, Mean ([2]; month 3): 0.25 | Number of qualifying nSEBs, observed, Mean ([2]; month 6): 0.92 | Number of qualifying nSEBs, observed, Mean ([2]; month 9): 1.38 | Number of qualifying nSEBs, observed, Mean ([2]; month 12): 2.50 | Number of new BCCs excluding no longer suspicious BCCs, observed, Mean ([2]; month 3): 1.00 | Number of new BCCs excluding no longer suspicious BCCs, observed, Mean ([2]; month 6): 2.92 | Number of new BCCs excluding no longer suspicious BCCs, observed, Mean ([2]; month 9): 4.75 | Number of new BCCs excluding no longer suspicious BCCs, observed, Mean ([2]; month 12): 6.67

From patent US20250339408A1, “TREATMENT AND PREVENTION OF BASAL CELL CARCINOMA WITH TOPICAL COMPOSITION COMPRISING PATIDEGIB” (Sol-Gel Technologies Ltd., priority 2023, published 2025)
